# Measured values taken from ChEMBL document CHEMBL1136625, “Substituted quinolines induce inhibition of proliferation of HTLV-1 infected cells” (2003).
# Species on record: Homo sapiens
# Assay: Inhibitory activity against human T-lymphotropic virus type 1 (HTLV-1) infected HUT-102 cells at 50 uM
# Type: functional
# Details: not given
row,Structure (SMILES),inhibition at 50 µM [%]
1,O=[N+]([O-])/C=C/c1ccc2ccccc2n1,0
2,C(=C\c1ccc2ccccc2n1)/c1ccc2ccccc2n1,0
3,CC(=O)Cc1ccc2ccccc2n1,0

# Tested on: Human T-cell leukemia virus type I
# Assay: Inhibitory activity against human T-lymphotropic virus type 1 (HTLV-1) infected HUT-102 cells at 10 uM
# Type: functional
# Details: Primate T-lymphotropic virus 1, HuT-102
row,Structure (SMILES),inhibition at 10 µM [%]
1,COc1ccc(/C=C/c2ccc3ccccc3n2)cc1OC,0
2,COc1ccc(C(O)Cc2ccc3ccccc3n2)cc1OC (centres undefined),0
3,C(=C\c1ccc2ccccc2n1)/c1ccccc1,0
4,COC(=O)/C=C/c1ccc2ccccc2n1,4
5,OC/C=C/c1ccc2ccccc2n1,0
6,COC(=O)/C=C/c1ccc2cc(C)ccc2n1,45
7,BrC(Br)=Cc1ccc2ccccc2n1,0
8,OC(c1ccc2ccccc2n1)C1CC1 (centres undefined),0
9,CCCCCc1ccc2ccccc2n1,0
10,CC1OC1c1ccc2ccccc2n1 (centres undefined),0
11,CC/C=C/c1ccc2ccccc2n1,0
12,C[Si](C)(C)C#Cc1ccc2ccccc2n1,87
13,CCCCCCCCCCCC/C=C/c1ccc2ccccc2n1,6
14,C=Cc1ccc2ccccc2n1,87
15,c1ccc(C2OC2c2ccc3ccccc3n2)cc1 (centres undefined),0
16,[O-][n+]1c(/C=C/c2ccccc2)ccc2ccccc21,86
17,c1ccc2nc(CCc3ccc4c(c3)OCO4)ccc2c1,50
18,OC(Cc1ccc2ccccc2n1)c1ccccc1 (centres undefined),16
19,CCCCCCCCCCCCCCc1ccc2ccccc2n1,12
20,CC(C)c1ccc2ccccc2n1,0
21,CC(O)Cc1ccc2cccc(O)c2n1 (centres undefined),85
22,CCCc1ccc2ccccc2n1,0
23,C(#Cc1cnc2ccccc2c1)CCC#Cc1cnc2ccccc2c1,82
24,CCC/C=C/c1ccc2ccccc2n1,46
25,O=C/C=C/c1ccc2ccccc2n1,34
26,c1ccc(-c2ccc3ccccc3n2)cc1 [2-PHENYLQUINOLINE],0
